In paper PMC10216581, “Homogeneous, Synthetic, Non-Saccharide Glycosaminoglycan Mimetics as Potent Inhibitors of Human Cathepsin G” (Biomolecules, 2023):
Values joined by “and” are separate entries in the source; they are usually repeats but may differ in a detail not shown here. Equal entries are not always repeated. “Also recorded” adds a separate entry of the source. Where two headings read alike, the source gives them in different places.

Legend:
Human CatG [1] = target: T1, Human CatG (Homo sapiens, UniProt P08311); experiment: Direct inhibition of CatG, chromogenic substrate (S-7388) hydrolysis assay, IC50 determination; format: biochemical; details: 100 mM NaCl
T1 construct: purchased Elastin Products Company (Owensville, MO, USA)
T1 sequence (P08311 21-255): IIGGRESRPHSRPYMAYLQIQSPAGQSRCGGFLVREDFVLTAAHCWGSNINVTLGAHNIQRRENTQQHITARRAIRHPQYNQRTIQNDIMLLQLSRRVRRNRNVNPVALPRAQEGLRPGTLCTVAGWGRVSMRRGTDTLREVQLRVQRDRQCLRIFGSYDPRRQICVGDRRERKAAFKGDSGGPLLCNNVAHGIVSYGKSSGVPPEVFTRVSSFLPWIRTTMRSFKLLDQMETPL
Experimental: A chromogenic substrate hydrolysis assay was used to determine the direct inhibition of CatG by the NSGMs, as previously reported. To each well of a 96-well microplate containing 88 µL of 20 mM tris buffer, containing 100 mM NaCl, 2.5 mM CaCl2, 0.1% PEG 8000, and 0.05% Tween 80, 4 µL of CatG (final concentration of 60 nM) and 5 µL of H2O or NSGM (final concentration of 0–100 µM) were added. After incubating for a period of 5 min, 3 µL of CatG substrate (S-7388, final concentration of 750 µM) was added, and the residual CatG activity was obtained from the initial rate of increase of absorbance at 405 nm. The relative residual activity of CatG for each of the NSGMs, at the various concentrations, was calculated from the ratio of CatG activity in the presence and absence of NSGMs. The dose dependence curve was plotted using a logistic equation (see below) in Sigmaplot version 12 to obtain the IC50 (potency), Hill slope (HS), and efficacy (ΔY). Here, Y is the ratio of residual CatG activity in the presence of NSGMs to that in their absence, YO and YM are the minimum and maximum values of fractional residual CatG activity, respectively, IC50 is the concentration of the NSGM that inhibits CatG activity by 50%, and HS is the Hill slope. ΔY = YM − YO. Y=YO+YM−YO/1+10^logI0−logIC50HS
Figure 4 Representative IC50 profiles for CatG inhibition by NSGMs. Direct inhibition of human CatG was measured using the chromogenic substrate hydrolysis assay at pH 7.4 and 37 °C. Solid lines represent analysis using the logistic dose–response relationship (Equation (1)) to obtain the IC50, ΔY%, and HS. Errors represent ± 1 S.E.

Human CatG [2] = target: T1, Human CatG; experiment: Michaelis-Menten kinetics of CatG hydrolysis of chromogenic substrate S-7388 in the presence of NSGM 25; format: biochemical
Experimental: […] The data were analyzed using the standard Michaelis–Menten equation in Sigmaplot version 12 to determine the KM and VMAX.
Figure 5 Kinetics of inhibition of 60 nM CatG by NSGM 25. Michaelis–Menten kinetics of CatG hydrolysis of chromogenic substrate (S-7388) in the presence of NSGM 25. Experiments were performed at 37 °C in 20 mM tris buffer, pH 7.4. Solid lines represent nonlinear regression analysis of the data using the standard Michaelis-Menten to calculate KM and VMAX.

human plasma [3] = experiment: Activated partial thromboplastin time (aPTT) clotting assay; format: biochemical
Experimental: (§1) The impacts of NSGM 25 on activated partial thromboplastin time (aPTT) and the prothrombin time (PT) of human plasma were measured employing a standard one-stage recalcification assay at 37 °C, as previously reported. CaCl2 and thromboplastin-D were used to initiate clotting in aPTT and PT assays, respectively, in the absence and presence of NSGM 25, and the time to clot was recorded accordingly.

human plasma [4] = experiment: Prothrombin time (PT) clotting assay; format: biochemical
Experimental: as §1

thrombin = test system: thrombin; design: method as in PMID 9790687; details: previous study; read-out: inhibitory potency; cited from earlier work
factor Xa = test system: factor Xa; design: method as in PMID 9790687; details: previous study; read-out: inhibitory potency; cited from earlier work
factor XIIa = test system: factor XIIa; design: method as in PMID 9790687; details: previous study; read-out: inhibitory potency; cited from earlier work
[5] = test system: human neutrophil elastase (HNE); design: method as in PMID 23735578; details: previous studies; cited from earlier work
[6] = 50 nM NSGM 25, substrate S-7388, pH 7.4, 37 °C
[7] = human plasma, concentration as high as 1 mM

For `O=c1c(OS(=O)(=O)O)c(-c2ccc(OS(=O)(=O)O)c(OS(=O)(=O)O)c2)oc2cc(OS(=O)(=O)O)cc(OCc3ccc(COc4cc(OS(=O)(=O)O)cc5oc(-c6ccc(OS(=O)(=O)O)c(OS(=O)(=O)O)c6)c(OS(=O)(=O)O)c(=O)c45)cc3)c12` [NSGM 25], the IC50 (Human CatG [1]; pH 7.4, read-out: IC50 (potency)) was ~50 nM and 53 nM, the “HS (Hill slope)” value (Human CatG [1]; Hill slope of dose-response fit, pH 7.4) was 0.7 ± 0.1 and the IC50 (Human CatG [1]; pH 7.4 tris buffer, 37 °C, 60 nM CatG, 750 µM S-7388, ± 1 S.E., read-out: IC50) was 50 ± 10 nM. For the same molecule, the “ΔY (efficacy)” value (Human CatG [1]; ΔY = YM − YO of dose-response fit, pH 7.4) was 95 ± 7%, the Km (Human CatG [2]; [6]) was 2180 ± 270 µM and the VMAX (Human CatG [2]; [6]) was 52.9 ± 4.1 mAu/min. For the same molecule, the Km (Human CatG [2]; 100 nM NSGM 25) was 1310 ± 60 µM, the VMAX (Human CatG [2]; 100 nM NSGM 25) was 31.0 ± 0.8 mAu/min and the Km (Human CatG [2]; 150 nM NSGM 25) was 870 ± 200 µM. The VMAX (Human CatG [2]; 150 nM NSGM 25) was 21.1 ± 2.1 mAu/min, the Km (Human CatG [2]; 200 nM NSGM 25) was 800 ± 110 µM and the VMAX (Human CatG [2]; 200 nM NSGM 25) was 17.0 ± 1.0 mAu/min. The Km (Human CatG [2]; 400 nM NSGM 25) was 770 ± 300 µM, the VMAX (Human CatG [2]; 400 nM NSGM 25) was 12 ± 2 mAu/min and 12.4 ± 2.1 mAu/min and the “mechanism of CatG inhibition” value (Human CatG [2]; from simultaneous reduction in KM and VMAX) was “uncompetitive”. The “aPTT (EC2X)” value (human plasma [3]; concentration required to double the aPTT of pooled human plasma) was over 1000 µM, the “effect on aPTT clotting time” value (human plasma [3]; [7]) was “did not impact; also recorded: did not extend” and the “PT (EC2X)” value (human plasma [4]; concentration required to double the PT of pooled human plasma) was over 1000 µM. The “effect on PT clotting time” value (human plasma [4]; [7]) was “did not impact; also recorded: did not extend”, the IC50 (thrombin) was over 150000 nM and the IC50 (factor Xa) was over 150000 nM. For the same molecule, the IC50 (factor XIIa) was over 150000 nM and the IC50 [5] was about 230 nM.
